How the values were obtained:
[1] = tested on: rat organotypic hippocampal slice culture (OHSC); assay: Glutamate-induced excitotoxic cell death in organotypic hippocampal slice cultures (PI uptake); assay type: cell-based; conditions: 5 mM L-glutamate 3 hours; 24 hours after; DG, CA1, CA3; Fer-1 2 μM, CPX 5 μM, MK-801 10 μM
Method: OHSCs were cultured as previously described (Morrison et al., 2002) with approval from Columbia University's Institutional Animal Care and Use Committee (IACUC). Briefly, Sprague Dawley rat pups (P8-P10) were rapidly decapitated, and the hippocampus placed in ice-cold Gey's balanced salt solution (Sigma). 400 μm thick sections were cut using a Mcllwain tissue chopper and immediately plated on Millicell cell culture inserts (Millipore, Billerica, Mass.) in Neurobasal (Invitrogen) media supplemented with B27 (1×, Invitrogen), GlutaMAX (1 mM, Invitrogen), and D-glucose (4.5 mg/mL, Sigma) at 37° C. and 5% CO2. After 2 days in vitro (DIV), the media was changed to medium containing serum comprised of 50% DMEM (Sigma), 25% heat-inactivated horse serum (Sigma), 25% Hank's balanced salt solution (Sigma), GlutaMAX (1 mM, Invitrogen), and D-glucose (4.5 mg/mL, Sigma). Medium was changed every 2-3 days.
After 10-14 DIV, OBSCs were exposed to an excitotoxic injury consisting of a 3 hour exposure to 5 mM L-glutamate in SFM (Morrison et al., 2002). Only healthy OHSCs defined as those with less than 5% cell death in all regions of the hippocampus (DG, CA3, CA1) pre-injury were used for experiments. After the 3 hour exposure, the cultures were placed in fresh serum free media (SFM) containing 75% DMEM, 25% Hank's balanced salt solution, GlutaMAX (1 mM), D-glucose (4.5 mg/mL) until cell death was quantified at 24 hours. If drugs were added, they were added at the same time as glutamate.
Quantification of cell death has been described previously (Cater et al., 2007; Morrison et al., 2002). Brightfield images of the hippocampal cultures were taken before injury for identification of regions of interest (ROI) including the dentate gyrus (DG), CA3 and CA1. Propidium iodide (PI, Invitrogen) was used as a fluorescent signal for cell death, and images were taken before the induction of injury and 24 hours following injury. […] Percentage cell death was expressed as the number of pixels in the ROI above a threshold in the PI fluorescent image divided by the total number of pixels in the ROI.

[2] = tested on: ERK phosphorylation in HT-1080 cells; assay: Western blotting of ERK phosphorylation; assay type: cell-based, human
Method: Cells were trypsinized, pelleted, and washed once in PBS. Cells were lysed for 20 minutes in buffer containing: 50 mM HEPES pH 7.4, 40 mM NaCl, 2 mM EDTA, 0.5% Triton X-100, 1.5 mM sodium orthovanadate, 50 mM NaF, 10 mM sodium pyrophosphate, 10 mM sodium β-glycerophosphate, and protease inhibitor tablet (Roche, Nutley, N.J.). Unlysed cells and debris were pelleted for 10 minutes at 10,000 rpm in a benchtop microcentrifuge at 4° C., and the supernatant was removed and mixed with 5×SDS loading buffer. Samples were separated by SDS-polyacrylamide gel electrophoresis. Western transfer was performed using the iBlot system (Invitrogen). Membrane was blocked for 1 hour in Licor Odyssey Blocking Buffer (LI-COR) and incubated in primary antibody overnight at 4° C. Following three 5-minute washes in Tris-buffered saline (pH 7.4) with 1% Tween-20 (TBS-T), membrane was incubated with secondary antibodies for 45 minutes in the dark. The membrane was washed again in TBST for three 5-minute washes with protection from light and scanned using the Odyssey Imaging System (LI-COR). Antibodies used were as follows: rabbit anti-phospho p42/44 MAPK (Cell Signaling Technology, #9101) and rabbit anti-p42/44 MAPK (Cell Signaling Technology, #9102). The secondary antibody was IR dye 800CW goat anti-rabbit IgG (LI-COR).

CCOC(=O)c1ccc(NC2CCCCC2)c(N)c1 [Fer-1, ferrostatin-1]
glutamate-induced cell death (PI uptake) [1]: attenuated significantly and to an almost identical extent
ERK phosphorylation [2]: did not inhibit ERK phosphorylation

Source: patent publication US9580398B2, “Compounds, compositions, and methods for modulating ferroptosis and treating excitotoxic disorders” (The Trustees of Columbia University in the City of New York, priority 2012, dated 2017)
